Row | SMILES | melting point [°C]
1 | CC12CCC(CC1=O)C2(C)C (stereo not given) [camphor] | 177
2 | Cc1ccnc(NS(=O)(=O)c2ccc(N)cc2)n1 [Sulfamerazine] | 235
3 | CC(C)(C)C1CCC(=O)CC1 [4-tert-butylcyclohexanone] | 49
4 | COc1ccc(N=C=S)c([N+](=O)[O-])c1 [4-methoxy-2-nitrophenyl isothiocyanate] | 92
5 | NC(=O)c1ccc(C=O)cc1 [p-formyl_benzamide] | 75

From the Bradley open melting point set (2014)
